Source: PMC10239507, “Development of allosteric and selective CDK2 inhibitors for contraception with negative cooperativity to cyclin binding” (Nature Communications, 2023)

Tests used:
Assay in all cases: biochemical
[1] = biological target: T1, 371 kinases (kinase named in each endpoint) (Homo sapiens, UniProt P04629); settings: TRKA
T1 construct: purchased Reaction Biology

[2] = biological target: T2, 371 kinases (kinase named in each endpoint) (Homo sapiens, UniProt P05129); settings: PKCG
T2 construct: purchased Reaction Biology

[3] = biological target: T3, 371 kinases (kinase named in each endpoint) (Homo sapiens, UniProt P05771); settings: PKCB1
T3 construct: purchased Reaction Biology

[4] = biological target: T4, 371 kinases (kinase named in each endpoint) (Homo sapiens, UniProt P06213); settings: IR
T4 construct: purchased Reaction Biology

[5] = biological target: T5, 371 kinases (kinase named in each endpoint) (Homo sapiens, UniProt P07333); settings: FMS
T5 construct: purchased Reaction Biology

[6] = biological target: T6, 371 kinases (kinase named in each endpoint) (Homo sapiens, UniProt P08631); settings: HCK
T6 construct: purchased Reaction Biology
T6 sequence (P08631 whole entry): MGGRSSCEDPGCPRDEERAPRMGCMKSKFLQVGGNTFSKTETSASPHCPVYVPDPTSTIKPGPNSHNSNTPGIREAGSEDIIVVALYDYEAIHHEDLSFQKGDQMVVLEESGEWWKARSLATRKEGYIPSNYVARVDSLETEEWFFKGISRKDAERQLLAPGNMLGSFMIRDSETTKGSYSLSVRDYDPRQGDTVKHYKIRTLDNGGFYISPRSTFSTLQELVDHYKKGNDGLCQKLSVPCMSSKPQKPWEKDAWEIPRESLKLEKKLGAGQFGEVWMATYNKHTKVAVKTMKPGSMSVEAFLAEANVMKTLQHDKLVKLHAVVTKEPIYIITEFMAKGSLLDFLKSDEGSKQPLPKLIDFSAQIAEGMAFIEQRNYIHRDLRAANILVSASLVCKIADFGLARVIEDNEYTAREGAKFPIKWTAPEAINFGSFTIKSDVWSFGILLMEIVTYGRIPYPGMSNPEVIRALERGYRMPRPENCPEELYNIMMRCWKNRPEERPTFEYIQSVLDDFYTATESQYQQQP

[7] = biological target: T7, 371 kinases (kinase named in each endpoint) (Homo sapiens, UniProt P08922); settings: ROS/ROS1
T7 construct: purchased Reaction Biology

[8] = biological target: T8, 371 kinases (kinase named in each endpoint) (Homo sapiens, UniProt P10398); settings: ARAF
T8 construct: purchased Reaction Biology

[9] = biological target: T9, 371 kinases (kinase named in each endpoint) (Homo sapiens, UniProt P12931); settings: C-SRC
T9 construct: purchased Reaction Biology

[10] = biological target: T10, 371 kinases (kinase named in each endpoint) (Homo sapiens, UniProt P15735); settings: PHKG2
T10 construct: purchased Reaction Biology
T10 sequence (P15735 whole entry): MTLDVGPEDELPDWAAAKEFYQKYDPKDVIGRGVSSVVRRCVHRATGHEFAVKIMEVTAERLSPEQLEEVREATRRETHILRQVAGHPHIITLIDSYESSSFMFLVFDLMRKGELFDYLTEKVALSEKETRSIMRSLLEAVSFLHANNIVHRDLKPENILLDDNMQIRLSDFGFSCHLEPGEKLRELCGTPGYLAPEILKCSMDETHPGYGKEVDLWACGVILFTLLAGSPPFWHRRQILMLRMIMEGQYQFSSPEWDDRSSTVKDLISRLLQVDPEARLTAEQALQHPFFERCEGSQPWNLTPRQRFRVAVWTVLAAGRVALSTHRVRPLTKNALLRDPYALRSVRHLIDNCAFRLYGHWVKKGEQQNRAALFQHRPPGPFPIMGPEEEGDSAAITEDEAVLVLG

[11] = biological target: T11, 371 kinases (kinase named in each endpoint) (Homo sapiens, UniProt P22455); settings: FGFR4
T11 construct: purchased Reaction Biology

[12] = biological target: T12, 371 kinases (kinase named in each endpoint) (Homo sapiens, UniProt P36894); settings: ALK3/BMPR1A
T12 construct: purchased Reaction Biology

[13] = biological target: T13, 371 kinases (kinase named in each endpoint) (Homo sapiens, UniProt P36897); settings: ALK5/TGFBR1
T13 construct: purchased Reaction Biology

[14] = biological target: T14, 371 kinases (kinase named in each endpoint) (Homo sapiens, UniProt P41240); settings: CSK
T14 construct: purchased Reaction Biology

[15] = biological target: T15, 371 kinases (kinase named in each endpoint) (Homo sapiens, UniProt P49760); settings: CLK2
T15 construct: purchased Reaction Biology
T15 sequence (P49760 whole entry): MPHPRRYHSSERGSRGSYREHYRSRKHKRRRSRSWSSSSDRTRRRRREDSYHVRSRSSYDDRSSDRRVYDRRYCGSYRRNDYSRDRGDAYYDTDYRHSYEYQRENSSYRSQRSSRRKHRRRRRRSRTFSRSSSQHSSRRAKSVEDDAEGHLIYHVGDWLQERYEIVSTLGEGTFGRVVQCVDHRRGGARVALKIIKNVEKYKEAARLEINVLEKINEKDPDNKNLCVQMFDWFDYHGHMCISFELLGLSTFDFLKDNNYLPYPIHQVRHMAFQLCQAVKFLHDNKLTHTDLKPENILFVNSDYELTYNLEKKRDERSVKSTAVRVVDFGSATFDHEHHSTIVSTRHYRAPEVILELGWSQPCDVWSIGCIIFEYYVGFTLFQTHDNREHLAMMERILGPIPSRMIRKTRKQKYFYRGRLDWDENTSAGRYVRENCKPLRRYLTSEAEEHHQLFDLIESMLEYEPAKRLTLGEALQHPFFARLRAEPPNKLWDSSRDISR

[16] = biological target: T16, 371 kinases (kinase named in each endpoint) (Homo sapiens, UniProt P50613); settings: CDK7/CYCLIN H
T16 construct: purchased Reaction Biology

[17] = biological target: T17, 371 kinases (kinase named in each endpoint) (Homo sapiens, UniProt P51813); settings: BMX/ETK
T17 construct: purchased Reaction Biology

[18] = biological target: T18, 371 kinases (kinase named in each endpoint) (Homo sapiens, UniProt P52333); settings: JAK3
T18 construct: purchased Reaction Biology

[19] = biological target: T19, 371 kinases (kinase named in each endpoint) (Homo sapiens, UniProt P53671); settings: LIMK2
T19 construct: purchased Reaction Biology

[20] = biological target: T20, 371 kinases (kinase named in each endpoint) (Homo sapiens, UniProt Q13233); settings: MEKK1
T20 construct: purchased Reaction Biology
T20 sequence (Q13233 whole entry): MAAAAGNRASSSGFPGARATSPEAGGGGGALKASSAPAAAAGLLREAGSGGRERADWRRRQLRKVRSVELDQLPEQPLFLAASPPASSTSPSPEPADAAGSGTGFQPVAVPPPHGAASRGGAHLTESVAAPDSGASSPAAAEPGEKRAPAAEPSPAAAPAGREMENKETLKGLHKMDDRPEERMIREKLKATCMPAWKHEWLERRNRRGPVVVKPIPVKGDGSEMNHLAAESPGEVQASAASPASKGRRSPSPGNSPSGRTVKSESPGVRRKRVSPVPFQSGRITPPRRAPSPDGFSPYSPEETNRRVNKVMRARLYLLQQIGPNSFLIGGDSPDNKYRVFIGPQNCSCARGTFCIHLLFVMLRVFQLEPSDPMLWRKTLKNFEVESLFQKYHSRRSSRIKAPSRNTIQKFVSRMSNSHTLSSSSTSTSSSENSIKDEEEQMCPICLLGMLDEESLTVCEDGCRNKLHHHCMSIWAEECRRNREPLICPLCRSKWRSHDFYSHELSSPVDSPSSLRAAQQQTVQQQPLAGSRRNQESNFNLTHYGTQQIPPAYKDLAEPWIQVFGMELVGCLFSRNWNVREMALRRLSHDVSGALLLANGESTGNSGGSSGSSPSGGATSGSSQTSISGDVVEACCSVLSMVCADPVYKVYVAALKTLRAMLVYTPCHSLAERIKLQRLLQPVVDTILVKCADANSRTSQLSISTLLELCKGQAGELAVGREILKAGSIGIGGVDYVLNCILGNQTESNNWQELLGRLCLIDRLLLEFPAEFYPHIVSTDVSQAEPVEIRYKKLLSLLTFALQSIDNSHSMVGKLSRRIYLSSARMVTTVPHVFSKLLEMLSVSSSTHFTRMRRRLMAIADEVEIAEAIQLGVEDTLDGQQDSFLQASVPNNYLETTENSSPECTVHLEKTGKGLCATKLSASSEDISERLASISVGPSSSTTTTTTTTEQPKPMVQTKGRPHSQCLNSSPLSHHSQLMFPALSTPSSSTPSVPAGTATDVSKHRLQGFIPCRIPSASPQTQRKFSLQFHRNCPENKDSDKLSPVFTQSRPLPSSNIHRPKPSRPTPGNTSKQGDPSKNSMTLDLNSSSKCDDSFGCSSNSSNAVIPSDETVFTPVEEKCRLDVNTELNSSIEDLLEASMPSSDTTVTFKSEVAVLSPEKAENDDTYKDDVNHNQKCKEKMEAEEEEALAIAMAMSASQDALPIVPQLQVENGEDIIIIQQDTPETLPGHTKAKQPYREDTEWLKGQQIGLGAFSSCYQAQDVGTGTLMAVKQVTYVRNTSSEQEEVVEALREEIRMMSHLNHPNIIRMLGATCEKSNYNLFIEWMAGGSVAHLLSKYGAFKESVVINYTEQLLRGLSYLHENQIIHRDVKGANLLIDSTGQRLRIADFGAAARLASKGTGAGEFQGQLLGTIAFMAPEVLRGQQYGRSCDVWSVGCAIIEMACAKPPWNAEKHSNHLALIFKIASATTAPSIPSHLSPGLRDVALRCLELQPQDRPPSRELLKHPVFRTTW

[21] = biological target: T21, 371 kinases (kinase named in each endpoint) (Homo sapiens, UniProt Q13555); settings: CAMK2g
T21 construct: purchased Reaction Biology

[22] = biological target: T22, 371 kinases (kinase named in each endpoint) (Homo sapiens, UniProt Q13873); settings: BMPR2
T22 construct: purchased Reaction Biology

[23] = biological target: T23, 371 kinases (kinase named in each endpoint) (Homo sapiens, UniProt Q14289); settings: PYK2
T23 construct: purchased Reaction Biology

[24] = biological target: T24, 371 kinases (kinase named in each endpoint) (Homo sapiens, UniProt Q14680); settings: MELK
T24 construct: purchased Reaction Biology

[25] = biological target: T25, 371 kinases (kinase named in each endpoint) (Homo sapiens, UniProt Q16513); settings: PKN2/PRK2
T25 construct: purchased Reaction Biology

[26] = biological target: T26, 371 kinases (kinase named in each endpoint) (Homo sapiens, UniProt Q6IQ55); settings: TTBK2
T26 construct: purchased Reaction Biology

[27] = biological target: T27, 371 kinases (kinase named in each endpoint) (Homo sapiens, UniProt Q8IU85); settings: CAMK1D
T27 construct: purchased Reaction Biology

[28] = biological target: T28, 371 kinases (kinase named in each endpoint) (Homo sapiens, UniProt Q8TDX7); settings: NEK7
T28 construct: purchased Reaction Biology
T28 sequence (Q8TDX7 whole entry): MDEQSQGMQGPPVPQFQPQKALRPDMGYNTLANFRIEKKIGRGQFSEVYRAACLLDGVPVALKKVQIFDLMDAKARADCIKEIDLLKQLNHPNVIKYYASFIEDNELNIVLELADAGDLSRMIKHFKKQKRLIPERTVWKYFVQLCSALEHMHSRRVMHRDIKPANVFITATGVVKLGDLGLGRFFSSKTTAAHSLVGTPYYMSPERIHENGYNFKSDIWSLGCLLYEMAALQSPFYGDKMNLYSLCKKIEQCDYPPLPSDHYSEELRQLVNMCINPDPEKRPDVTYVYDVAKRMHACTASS

[29] = biological target: T29, 371 kinases (kinase named in each endpoint) (Homo sapiens, UniProt Q8WTQ7); settings: GRK7
T29 construct: purchased Reaction Biology

[30] = biological target: T30, 371 kinases (kinase named in each endpoint) (Homo sapiens, UniProt Q96L34); settings: MARK4
T30 construct: purchased Reaction Biology
T30 sequence (Q96L34 whole entry): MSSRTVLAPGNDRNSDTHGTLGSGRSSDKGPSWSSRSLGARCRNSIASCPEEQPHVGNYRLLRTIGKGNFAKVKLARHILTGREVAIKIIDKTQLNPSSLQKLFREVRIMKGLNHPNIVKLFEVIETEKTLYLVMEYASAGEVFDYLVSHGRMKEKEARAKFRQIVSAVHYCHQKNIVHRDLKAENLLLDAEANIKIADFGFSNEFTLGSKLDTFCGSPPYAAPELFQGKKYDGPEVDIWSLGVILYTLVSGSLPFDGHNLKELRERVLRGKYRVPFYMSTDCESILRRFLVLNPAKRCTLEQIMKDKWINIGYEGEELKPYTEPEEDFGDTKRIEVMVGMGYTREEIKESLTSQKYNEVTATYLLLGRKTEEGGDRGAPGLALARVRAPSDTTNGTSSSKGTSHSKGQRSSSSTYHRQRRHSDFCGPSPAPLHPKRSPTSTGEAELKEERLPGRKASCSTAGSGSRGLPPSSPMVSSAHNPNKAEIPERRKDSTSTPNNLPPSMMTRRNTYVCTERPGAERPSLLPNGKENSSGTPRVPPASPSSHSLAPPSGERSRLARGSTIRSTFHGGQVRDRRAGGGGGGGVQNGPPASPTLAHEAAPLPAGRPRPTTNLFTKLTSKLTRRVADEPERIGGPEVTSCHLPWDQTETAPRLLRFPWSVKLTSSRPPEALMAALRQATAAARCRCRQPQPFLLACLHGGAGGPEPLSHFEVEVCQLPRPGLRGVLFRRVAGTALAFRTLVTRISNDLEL

[31] = biological target: T31, 371 kinases (kinase named in each endpoint) (Homo sapiens, UniProt Q9BYT3); settings: STK33
T31 construct: purchased Reaction Biology
T31 sequence (Q9BYT3 whole entry): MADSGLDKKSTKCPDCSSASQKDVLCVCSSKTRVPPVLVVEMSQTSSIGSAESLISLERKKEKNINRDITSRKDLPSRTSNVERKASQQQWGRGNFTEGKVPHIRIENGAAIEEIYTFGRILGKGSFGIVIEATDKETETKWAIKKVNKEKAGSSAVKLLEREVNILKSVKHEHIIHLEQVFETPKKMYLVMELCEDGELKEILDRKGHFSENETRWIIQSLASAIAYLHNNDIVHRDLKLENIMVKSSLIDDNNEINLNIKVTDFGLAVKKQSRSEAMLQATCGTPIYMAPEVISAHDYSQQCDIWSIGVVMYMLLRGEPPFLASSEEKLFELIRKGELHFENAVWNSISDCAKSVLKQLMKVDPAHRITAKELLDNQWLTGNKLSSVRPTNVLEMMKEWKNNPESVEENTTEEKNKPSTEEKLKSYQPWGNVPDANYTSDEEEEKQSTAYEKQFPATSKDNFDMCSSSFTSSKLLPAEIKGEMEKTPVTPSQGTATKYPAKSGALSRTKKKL

[32] = biological target: T32, 371 kinases (kinase named in each endpoint) (Homo sapiens, UniProt Q9H2K8); settings: TAOK3/JIK
T32 construct: purchased Reaction Biology

[33] = biological target: T33, 371 kinases (kinase named in each endpoint) (Homo sapiens, UniProt Q9H422); settings: HIPK3
T33 construct: purchased Reaction Biology

[34] = biological target: T34, 371 kinases (kinase named in each endpoint) (Homo sapiens, UniProt Q9NY57); settings: STK32B/YANK2
T34 construct: purchased Reaction Biology

[35] = biological target: T35, 371 kinases (kinase named in each endpoint) (Homo sapiens, UniProt Q9P289); settings: MST4
T35 construct: purchased Reaction Biology

[36] = biological target: T36, 371 kinases (kinase named in each endpoint) (Homo sapiens, UniProt Q9UKE5); settings: TNIK
T36 construct: purchased Reaction Biology

[37] = biological target: T37, 371 kinases (kinase named in each endpoint) (Homo sapiens, UniProt Q9UQM7); settings: CAMK2A
T37 construct: purchased Reaction Biology
T37 sequence (Q9UQM7 whole entry): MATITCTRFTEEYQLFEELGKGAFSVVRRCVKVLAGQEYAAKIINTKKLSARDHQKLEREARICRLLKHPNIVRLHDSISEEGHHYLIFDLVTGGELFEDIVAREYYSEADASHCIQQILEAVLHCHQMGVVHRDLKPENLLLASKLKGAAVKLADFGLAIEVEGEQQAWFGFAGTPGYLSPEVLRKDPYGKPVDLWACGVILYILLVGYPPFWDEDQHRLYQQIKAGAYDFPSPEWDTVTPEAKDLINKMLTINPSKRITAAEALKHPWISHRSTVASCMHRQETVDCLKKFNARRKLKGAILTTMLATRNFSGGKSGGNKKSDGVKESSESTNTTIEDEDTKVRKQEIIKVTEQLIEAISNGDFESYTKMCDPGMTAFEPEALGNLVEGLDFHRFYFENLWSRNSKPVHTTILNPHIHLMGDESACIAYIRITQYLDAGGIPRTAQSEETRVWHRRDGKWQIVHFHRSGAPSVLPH

Question: `O=C(O)c1cc(C(F)(F)F)ccc1NCCc1c[nH]c2cc(Br)ccc12` [Compound 5, 2-((2-(6-Bromo-1H-indol-3-yl)ethyl)amino)−5-(trifluoromethyl)benzoic Acid] was tested. Which activity at 10 µM [1] did it give?
Answer: 65.1 ± 1.6%

Question: What about the activity at 10 µM [2] of the same compound?
Answer: 81.9 ± 1.6%

Question: And the activity at 10 µM [3]?
Answer: 91%

Question: And the activity at 10 µM [4]?
Answer: 64.7 ± 1.1%

Question: And the activity at 10 µM [5]?
Answer: 98 ± 1.7%

Question: What about the activity at 10 µM [6] of the same compound?
Answer: 86.2 ± 0.4%

Question: What about the activity at 10 µM [7] of the same compound?
Answer: 94.7 ± 1.4%

Question: And the activity at 10 µM [8]?
Answer: 91.1 ± 0.8%

Question: What about the activity at 10 µM [9] of the same compound?
Answer: 95.1 ± 0.2%

Question: What about the activity at 10 µM [10] of the same compound?
Answer: 106.5 ± 0.1%

Question: And the activity at 10 µM [11]?
Answer: 63.4 ± 6.7%

Question: And the activity at 10 µM [12]?
Answer: 71.1 ± 2%

Question: And the activity at 10 µM [13]?
Answer: 84.2 ± 0.1%

Question: And the activity at 10 µM [14]?
Answer: 100.9 ± 0.9%

Question: What about the activity at 10 µM [15] of the same compound?
Answer: 104.3 ± 0.7%

Question: And the activity at 10 µM [16]?
Answer: 104 ± 3.6%

Question: And the activity at 10 µM [17]?
Answer: 101.8 ± 0.4%

Question: And the activity at 10 µM [18]?
Answer: 94.7 ± 0.1%

Question: And the activity at 10 µM [19]?
Answer: 75.1 ± 1.7%

Question: What about the activity at 10 µM [20] of the same compound?
Answer: 110 ± 0.1%

Question: What about the activity at 10 µM [21] of the same compound?
Answer: 74.4%

Question: And the activity at 10 µM [22]?
Answer: 88 ± 5.4%

Question: And the activity at 10 µM [23]?
Answer: 75.6 ± 1.9%

Question: And the activity at 10 µM [24]?
Answer: 95.8 ± 3%

Question: And the activity at 10 µM [25]?
Answer: 110 ± 1.7%

Question: What about the activity at 10 µM [26] of the same compound?
Answer: 105 ± 1.1%

Question: And the activity at 10 µM [27]?
Answer: 69.8 ± 1.7%

Question: What about the activity at 10 µM [28] of the same compound?
Answer: 80.2 ± 0.8%

Question: And the activity at 10 µM [29]?
Answer: 101.5 ± 0.4%

Question: And the activity at 10 µM [30]?
Answer: 69.6 ± 1.3%

Question: And the activity at 10 µM [31]?
Answer: 85.1 ± 4.1%

Question: And the activity at 10 µM [32]?
Answer: 83.3 ± 2.1%

Question: What about the activity at 10 µM [33] of the same compound?
Answer: 86.3 ± 2.3%

Question: And the activity at 10 µM [34]?
Answer: 154.6 ± 0.7%

Question: What about the activity at 10 µM [35] of the same compound?
Answer: 56 ± 0.2%

Question: And the activity at 10 µM [36]?
Answer: 51.9 ± 1.4%

Question: And the activity at 10 µM [37]?
Answer: 70.2 ± 3.3%
